# Tested on: CD8+ T cells
# Assay: In vitro immunogenicity: T-cell priming with aAPCs loaded with peptide/MHC and anti-CD28, multimer staining
# Format: cell-based, human
# Settings: healthy donor CD8+ T cells, three stimulation cycles, multimer readout
# From the text: In order to obtain information regarding the immunogenicity of the TUMAPs of the present invention, the inventors performed investigations using an in vitro T-cell priming assay based on repeated stimulations of CD8+ T cells with artificial antigen presenting cells (aAPCs) loaded with peptide/MHC complexes and anti-CD28 antibody.
# In order to perform in vitro stimulations by artificial antigen presenting cells loaded with peptide-MHC complex (pMHC) and anti-CD28 antibody, the inventors first isolated CD8+ T cells from fresh HLA-A*02 leukapheresis products via positive selection using CD8 microbeads (Miltenyi Biotec, Bergisch-Gladbach, Germany) of healthy donors obtained from the University clinics Mannheim, Germany, after informed consent.
# PBMCs and isolated CD8+ lymphocytes were incubated in T-cell medium (TCM) until use consisting of RPMI-Glutamax (Invitrogen, Karlsruhe, Germany) supplemented with 10% heat inactivated human AB serum (PAN-Biotech, Aidenbach, Germany), 100 U/ml Penicillin/100 μg/ml Streptomycin (Cambrex, Cologne, Germany), 1 mM sodium pyruvate (CC Pro, Oberdorla, Germany), 20 µg/ml Gentamycin (Cambrex). 2.5 ng/ml IL7 (PromoCell, Heidelberg, Germany) and 10 U/ml IL-2 (Novartis Pharma, Nurnberg, Germany) were also added to the TCM at this step.
# Generation of pMHC/anti-CD28 coated beads, T-cell stimulations and readout was performed in a highly defined in vitro system using four different pMHC molecules per stimulation condition and 8 different pMHC molecules per readout condition.
# The purified co-stimulatory mouse IgG2a anti human CD28 Ab 9.3 (Jung et al., 1987) was chemically biotinylated using Sulfo-N-hydroxysuccinimidobiotin as recommended by the manufacturer (Perbio, Bonn, Germany). Beads used were 5.6 μm diameter streptavidin coated polystyrene particles (Bangs Laboratories, Illinois, USA).
# pMHC used for positive and negative control stimulations were A*0201/MLA-001 (peptide […] (SEQ ID NO. 303) from modified Melan-A/MART-1) and A*0201/DDX5-001 ([…] from DDX5, SEQ ID NO. 304), respectively.
# 800.000 beads/200 μl were coated in 96-well plates in the presence of 4×12.5 ng different biotin-pMHC, washed and 600 ng biotin anti-CD28 were added subsequently in a volume of 200 μl. Stimulations were initiated in 96-well plates by co-incubating 1×10^6 CD8+ T cells with 2×10^5 washed coated beads in 200 μI TCM supplemented with 5 ng/ml IL-12 (PromoCell) for 3 days at 37° C. Half of the medium was then exchanged by fresh TCM supplemented with 80 U/ml IL-2 and incubating was continued for 4 days at 37° C. This stimulation cycle was performed for a total of three times. For the pMHC multimer readout using 8 different pMHC molecules per condition, a two-dimensional combinatorial coding approach was used as previously described (Andersen et al., 2012) with minor modifications encompassing coupling to 5 different fluorochromes. Finally, multimeric analyses were performed by staining the cells with Live/dead near IR dye (Invitrogen, Karlsruhe, Germany), CD8-FITC antibody clone SK1 (BD, Heidelberg, Germany) and fluorescent pMHC multimers. For analysis, a BD LSRII SORP cytometer equipped with appropriate lasers and filters was used. Peptide specific cells were calculated as percentage of total CD8+ cells. Evaluation of multimeric analysis was done using the FlowJo software (Tree Star, Oreg., USA). In vitro priming of specific multimer+CD8+ lymphocytes was detected by comparing to negative control stimulations.
row,Substance,Wells (in vitro immunogenicity)
1,290 (KIVDFSYSV; listed as Homo sapiens) [compound 290],++ (20%-49% = ++)

# Same assay, conditions: in vitro immunogenicity of HLA class I peptides; peptide-specific multimer staining after aAPC priming of CD8+ T cells
row,Substance,Wells positive [%]
1,5 (GIVAHIQEV; listed as Homo sapiens) [compound 5],+ (<20% = +)
2,18 (ILLDLTDNRL; listed as Homo sapiens) [compound 18],+ (<20% = +)
3,23 (SLFSDEFKV; listed as Homo sapiens) [compound 23],++++ (>=70% = ++++)
4,26 (ALQEELTEL; listed as Homo sapiens) [compound 26],+ (<20% = +)
5,29 (YLLDPSITL; listed as Homo sapiens) [compound 29],+ (<20% = +)
6,31 (TITETTVEV; listed as Homo sapiens) [compound 31],+ (<20% = +)
7,35 (FLLPFSTVYL; listed as Homo sapiens) [compound 35],+ (<20% = +)
8,90 (FLQDLEQRL; listed as Homo sapiens) [compound 90],+ (<20% = +)
9,141 (FLDKVLVAA; listed as Homo sapiens) [compound 141],+ (<20% = +)
10,149 (ILNTHITEL; listed as Homo sapiens) [compound 149],+ (<20% = +)
11,196 (LYIDRPLPYL; listed as Homo sapiens) [compound 196],++++ (>=70% = ++++)
12,197 (EYSLFPGQVVI; listed as Homo sapiens) [compound 197],+ (<20% = +)
13,207 (AYVVFVSTL; listed as Homo sapiens) [compound 207],+ (<20% = +)
14,218 (YYKSTSSAF; listed as Homo sapiens) [compound 218],+ (<20% = +)
15,230 (KLQNIMMLL; listed as Homo sapiens) [compound 230],++++ (>=70% = ++++)
16,268 (QYLGQIQHI; listed as Homo sapiens) [compound 268],+ (<20% = +)
17,269 (YFIDSTNLKTHF; listed as Homo sapiens) [compound 269],+ (<20% = +)
18,285 (HYPPVQVLF; listed as Homo sapiens) [compound 285],+ (<20% = +)

# Tested on: HLA-A*24
# Assay: MHC binding assay (UV-ligand exchange, beta2m ELISA), HLA-A*24
# Design: species or system human
# Settings: peptide exchange yield, binding to HLA-A*24, UV-ligand exchange, β2m ELISA
# From the text: Candidate peptides for T cell based therapies according to the present invention were further tested for their MHC binding capacity (affinity). The individual peptide-MHC complexes were produced by UV-ligand exchange, where a UV-sensitive peptide is cleaved upon UV-irradiation, and exchanged with the peptide of interest as analyzed. Only peptide candidates that can effectively bind and stabilize the peptide-receptive MHC molecules prevent dissociation of the MHC complexes. To determine the yield of the exchange reaction, an ELISA was performed based on the detection of the light chain (β2m) of stabilized MHC complexes. The assay was performed as generally described in Rodenko et al. (Rodenko et al., 2006).
# 96 well MAXISorp plates (NUNC) were coated over night with 2 ug/ml streptavidin in PBS at room temperature, washed 4× and blocked for 1 h at 37° C. in 2% BSA containing blocking buffer. Refolded HLA-A*02:01/MLA-001 monomers served as standards, covering the range of 15-500 ng/ml. Peptide-MHC monomers of the UV-exchange reaction were diluted 100 fold in blocking buffer. Samples were incubated for 1h at 37° C., washed four times, incubated with 2 ug/ml HRP conjugated anti-62m for 1 h at 37° C., washed again and detected with TMB solution that is stopped with […]. Absorption was measured at 450 nm. Candidate peptides that show a high exchange yield (preferably higher than 50%, most preferred higher than 75%) are generally preferred for a generation and production of antibodies or fragments thereof, and/or T cell receptors or fragments thereof, as they show sufficient avidity to the MHC molecules and prevent dissociation of the MHC complexes.
row,Peptide exchange,Substance
1,++++ (>=75% = ++++),160 (VYTLDIPVL; listed as Homo sapiens) [compound 160]
2,++++ (>=75% = ++++),161 (IYLVSIPEL; listed as Homo sapiens) [compound 161]
3,++++ (>=75% = ++++),166 (YYVESGKLF; listed as Homo sapiens) [compound 166]
4,++++ (>=75% = ++++),168 (KYQDILETI; listed as Homo sapiens) [compound 168]
5,++++ (>=75% = ++++),172 (TYTTVPRVAF; listed as Homo sapiens) [compound 172]
6,++++ (>=75% = ++++),173 (IYSWILDHF; listed as Homo sapiens) [compound 173]
7,++++ (>=75% = ++++),175 (YYEVHKELF; listed as Homo sapiens) [compound 175]
8,++++ (>=75% = ++++),177 (VYPWLGALL; listed as Homo sapiens) [compound 177]
9,++++ (>=75% = ++++),179 (MYDSYWRQF; listed as Homo sapiens) [compound 179]
10,++++ (>=75% = ++++),181 (LYLDIINLF; listed as Homo sapiens) [compound 181]
11,++++ (>=75% = ++++),184 (VFQNFPLLF; listed as Homo sapiens) [compound 184]
12,++++ (>=75% = ++++),186 (IFPQFLYQF; listed as Homo sapiens) [compound 186]
13,++++ (>=75% = ++++),187 (TYLRDQHFL; listed as Homo sapiens) [compound 187]
14,++++ (>=75% = ++++),192 (SYALLTYMI; listed as Homo sapiens) [compound 192]
15,++++ (>=75% = ++++),193 (RFHPTPLLL; listed as Homo sapiens) [compound 193]
16,+ (<20% = +),194 (EFGSLHLEFL; listed as Homo sapiens) [compound 194]
17,++++ (>=75% = ++++),195 (TYSVSFPMF; listed as Homo sapiens) [compound 195]

row,Peptide exchange,Substance
1,++++ (>=75% = ++++),202 (VYWDSAGAAHF; listed as Homo sapiens) [compound 202]
2,++++ (>=75% = ++++),210 (IYTMIYRNL; listed as Homo sapiens) [compound 210]
3,++++ (>=75% = ++++),211 (YYLEVGKTLI; listed as Homo sapiens) [compound 211]
4,++++ (>=75% = ++++),216 (QYSSVFKSL; listed as Homo sapiens) [compound 216]
5,++++ (>=75% = ++++),217 (FFPPTRQMGLLF; listed as Homo sapiens) [compound 217]
6,++++ (>=75% = ++++),227 (IFLDYEAGTLSF; listed as Homo sapiens) [compound 227]
7,++++ (>=75% = ++++),228 (KYTSWYVAL; listed as Homo sapiens) [compound 228]
8,++++ (>=75% = ++++),267 (KYMVYPQTF; listed as Homo sapiens) [compound 267]
9,++++ (>=75% = ++++),271 (LYHDIFSRL; listed as Homo sapiens) [compound 271]
10,++++ (>=75% = ++++),272 (QYLQDAYSF; listed as Homo sapiens) [compound 272]
11,++++ (>=75% = ++++),274 (AYLHSHALI; listed as Homo sapiens) [compound 274]
12,++++ (>=75% = ++++),276 (VYGFQWRHF; listed as Homo sapiens) [compound 276]
13,++++ (>=75% = ++++),277 (VYQGHTALL; listed as Homo sapiens) [compound 277]
14,++++ (>=75% = ++++),278 (RYISDQLFTNF; listed as Homo sapiens) [compound 278]
15,++++ (>=75% = ++++),280 (RYPDNLKHLYL; listed as Homo sapiens) [compound 280]
16,++++ (>=75% = ++++),282 (KFVDSTFYL; listed as Homo sapiens) [compound 282]
17,++++ (>=75% = ++++),289 (KYPVEWAKF; listed as Homo sapiens) [compound 289]

# — patent US10004792B2, “Peptides and combination of peptides for use in immunotherapy against various cancers” (immatics biotechnologies GmbH, priority 2015, dated 2018)
